Data taken from patent US20150031102A1, “METHODS AND COMPOSITIONS FOR ENHANCED PRODUCTION OF BUTANOL BY CLOSTRIDIA” (Butrolix LLC, priority 2012, published 2015).
Marks after values point to notes of the source that are not given here.

Test system: C. acetobutylicum
Test: Continuous culture, 2.5 L, dilution rate 0.01 per hour, 20 days (butanol, residual glucose, optical density, pH, yield, productivity)
Type: cell-based, Clostridium acetobutylicum
Conditions: for Optical density (600 nm): 50 nM BP110517 and its control; for Productivity / Yield / Butanol: 50 nM peptide, Table 53; for Butanol: average ± SD of triplicate samples; for Average Butanol / Average Glucose: Treated (50 nM)
Description: Lastly, 2.5 L continuous culture studies were conducted using the optimum peptide treatment level that was determined by the sequential batch transfer experiments. An untreated and a peptide-treated culture were grown in parallel, identical vessels with identical dilution rates for 20 days. The continuous cultures were initiated by inoculating 2.25 L of sterile medium in each culture vessel using 250 mL of peptide-treated and untreated batch cultures that had been grown for 24 hours. The batch cultures used as inoculum were the third of sequential batch transfer cultures, which made inoculation of the continuous cultures the fourth sequential transfer. After inoculation, the continuous cultures were grown for 24 hours before beginning to feed fresh medium at a rate of 0.01 volumes per hour. Triplicate samples were taken from each continuous culture every 24 hours. Optical density of the replicates was measured and culture supernatants were recovered following centrifugation and analyzed later for butanol and residual glucose concentrations. The analyses were used to calculate yield and productivity of the cultures.
Clostridium acetobutylicum strain ATCC 824 was used in all experiments and the growth medium used for sequential batch transfer, time course, and continuous culture experiments contained yeast extract, casamino acids, L-cysteine, L-asparagine, phosphate buffer, trace minerals, and 6% glucose. What are believed to be quorum-sensing peptides that were used in the experiments were chemically synthesized peptides SEQ ID NO: 143 (amino acid sequence: SYPGWSW) and SEQ ID NO: 144 (amino acid sequence: ILILISG). Routine growth of the bacteria as well as the sequential batch and time course experiments were conducted in a Form a Scientific Model 1029 anaerobic gas chamber at 32° C. Continuous cultures were performed at 32° C. using duplicate New Brunswick Scientific BioFlo 3000 apparati with a dilution rate of 0.01 volume per hour, 75 rpm agitation, and nitrogen gas sparging. Optical density of culture samples was measured at 600 nm in a Beckman DU 600 series spectrophotometer and glucose was analyzed using a YSI Model 2700 Select Biochemistry Analyzer with internal glucose calibration. Butanol concentrations were determined by measuring experimental and standard samples using a Varian Saturn 3 Gas Chromatograph/Mass Spectrometer and calculating butanol concentrations using standard curves.
Data from continuous cultures using a 6% glucose medium in vessels with a working volume of 2.5 L run at a dilution rate of 0.01 per hour. Two vessels were run in parallel, one of which was treated with 50 nM of peptide SEQ ID NO: 143 and the other was untreated. The vessels were sparged continuously with nitrogen gas to maintain anaerobic conditions and were agitated at 75 rpm. On Day 0, the vessels were inoculated with a 1/10 volume (250 mL) of overnight cultures that were either treated with peptide or untreated, and that were the third transfer of the cultures, which made inoculation of the continuous cultures the fourth transfer. Triplicate samples were collected aseptically from each vessel immediately after inoculation and every 24 hours thereafter. The cultures were allowed to grow for 24 hours prior to beginning to feed fresh medium, and were maintained for 20 days each, without pH control. The optical density of each sample was measured immediately at 600 nm, the samples were centrifuged to remove cells, and the cell-free supernatants were frozen for later analysis. A representative experiment is shown in FIG. 19 and Tables 34 and 35.
Using the optimum peptide treatment level that was determined by the sequential batch transfer experiments, 2.5 L continuous culture studies were conducted. An untreated and a peptide-treated culture were grown in parallel, identical vessels using the same dilution rates for 20 days for each of the peptides BP110517 and BP1106213. […]

[1] = 50 nM BP110517, last five days of culture
[2] = 24 hour period preceding day 10
[3] = 24 hour period preceding day 11
[4] = 24 hour period preceding day 12
[5] = 24 hour period preceding day 13
[6] = 24 hour period preceding day 14
[7] = 24 hour period preceding day 15
[8] = 24 hour period preceding day 16
[9] = 24 hour period preceding day 17
[10] = 24 hour period preceding day 18
[11] = 24 hour period preceding day 19
[12] = 24 hour period preceding day 20

SYPGWSW [peptide SEQ ID NO: 143] was tested, and the “Butanol content compared with the control” value (50 nM BP110517, between days 5 and 9) was “significantly more butanol than the control”, the “Butanol content compared with the control” value [1] was “significantly greater than the control” and the “Butanol level lower than earlier in the culture period” value [1] was “roughly 75%”. For the same substance, the “Optical density (600 nm)” value (after day 13, recovered after day 17) was “less than 0.500”, the “Optical density (600 nm)” value (first 9 days) was “around 2.0” and the Productivity (24 hour period preceding day 1) was 0.53 g Butanol/L-h. It also gave a Yield (24 hour period preceding day 1) of 0.19 g Butanol/g Glucose, a Productivity (24 hour period preceding day 2) of −0.17 g Butanol/L-h and a Yield (24 hour period preceding day 2) of −0.28 g Butanol/g Glucose. The Productivity (24 hour period preceding day 3) was 0.07 g Butanol/L-h, the Yield (24 hour period preceding day 3) was 0.11 g Butanol/g Glucose and the Productivity (24 hour period preceding day 4) was 0.29 g Butanol/L-h. It also gave a Yield (24 hour period preceding day 4) of 0.46 g Butanol/g Glucose, a Productivity (24 hour period preceding day 5) of 0.24 g Butanol/L-h and a Yield (24 hour period preceding day 5) of 0.39 g Butanol/g Glucose. The Productivity (24 hour period preceding day 6) was 0.07 g Butanol/L-h, the Yield (24 hour period preceding day 6) was 0.11 g Butanol/g Glucose and the Productivity (24 hour period preceding day 7) was 0.14 g Butanol/L-h. It also gave a Yield (24 hour period preceding day 7) of 0.23 g Butanol/g Glucose, a Productivity (24 hour period preceding day 8) of 0.06 g Butanol/L-h and a Yield (24 hour period preceding day 8) of 0.10 g Butanol/g Glucose. The Productivity (24 hour period preceding day 9) was 0.07 g Butanol/L-h, the Yield (24 hour period preceding day 9) was 0.11 g Butanol/g Glucose and the Productivity [2] was 0.00 g Butanol/L-h. It also gave a Yield [2] of 0.01 g Butanol/g Glucose, a Productivity [3] of 0.20 g Butanol/L-h and a Yield [3] of 0.33 g Butanol/g Glucose. The Productivity [4] was 0.02 g Butanol/L-h, the Yield [4] was 0.04 g Butanol/g Glucose and the Productivity [5] was −0.11 g Butanol/L-h. The Yield [5] was −0.18 g Butanol/g Glucose, the Productivity [6] was 0.00 g Butanol/L-h and the Yield [6] was 0.00 g Butanol/g Glucose. It also gave a Productivity [7] of 0.03 g Butanol/L-h, a Yield [7] of 0.05 g Butanol/g Glucose and a Productivity [8] of 0.11 g Butanol/L-h. The Yield [8] was 0.17 g Butanol/g Glucose, the Productivity [9] was −0.01 g Butanol/L-h and the Yield [9] was −0.02 g Butanol/g Glucose. For the same substance, the Productivity [10] was 0.01 g Butanol/L-h, the Yield [10] was 0.01 g Butanol/g Glucose and the Productivity [11] was 0.06 g Butanol/L-h. For the same substance, the Yield [11] was 0.09 g Butanol/g Glucose, the Productivity [12] was 0.01 g Butanol/L-h and the Yield [12] was 0.01 g Butanol/g Glucose. It also gave a Butanol (day 0) of 0.9 ± 0.0 g/L, a Butanol (day 1) of 12.8 ± 4.4 g/L and a Butanol (day 2) of 5.5 ± 0.7 g/L. The Butanol (day 3) was 5.8 ± 1.7 g/L, the Butanol (day 4) was 11.2 ± 5.3 g/L and the Butanol (day 5) was 14.2 ± 0.3^c g/L. The Butanol (day 6) was 12.3 ± 0.6^c g/L, the Butanol (day 7) was 12.6 ± 0.0^c g/L and the Butanol (day 8) was 11.0 ± 0.4 g/L. For the same substance, the Butanol (day 9) was 9.9 ± 0.3^c g/L, the Butanol (day 10) was 7.6 ± 0.3 g/L and the Butanol (day 11) was 10.6 ± 0.7 g/L. The Butanol (day 12) was 8.5 ± 2.8 g/L, the Butanol (day 13) was 3.6 ± 0.2 g/L and the Butanol (day 14) was 2.7 ± 0.4 g/L. The Butanol (day 15) was 2.8 ± 0.6 g/L, the Butanol (day 16) was 4.7 ± 0.1^c g/L and the Butanol (day 17) was 3.3 ± 0.2^c g/L. The Butanol (day 18) was 2.7 ± 0.0^c g/L, the Butanol (day 19) was 3.4 ± 0.1^c g/L and the Butanol (day 20) was 2.7 ± 0.2^c g/L. For the same substance, the “Effect on butanol yield and productivity” value (BP110517, continuous cultures (summary of findings)) was “increased butanol yield and productivity”, the “Average Butanol” value (day 0) was 0.91 g/L and the “Average Glucose” value (day 0) was 66.1 g/L. For the same substance, the “Average Butanol” value (day 1) was 12.81 g/L, the “Average Glucose” value (day 1) was 28.2 g/L and the “Average Butanol” value (day 2) was 5.54 g/L. The “Average Glucose” value (day 2) was 3.3 g/L, the “Average Butanol” value (day 3) was 5.78 g/L and the “Average Glucose” value (day 3) was 3.1 g/L. The “Average Butanol” value (day 4) was 11.22 g/L, the “Average Glucose” value (day 4) was 2.4 g/L and the “Average Butanol” value (day 5) was 14.19 g/L. For the same substance, the “Average Glucose” value (day 5) was 0.0 g/L, the “Average Butanol” value (day 6) was 12.27 g/L and the “Average Glucose” value (day 6) was 0.0 g/L. The “Average Butanol” value (day 7) was 12.64 g/L, the “Average Glucose” value (day 7) was 0.4 g/L and the “Average Butanol” value (day 8) was 10.95 g/L. For the same substance, the “Average Glucose” value (day 8) was 0.0 g/L, the “Average Butanol” value (day 9) was 9.89 g/L and the “Average Glucose” value (day 9) was 2.3 g/L. For the same substance, the “Average Butanol” value (day 10) was 7.55 g/L, the “Average Glucose” value (day 10) was 13.4 g/L and the “Average Butanol” value (day 11) was 10.55 g/L. The “Average Glucose” value (day 11) was 6.1 g/L, the “Average Butanol” value (day 12) was 8.46 g/L and the “Average Glucose” value (day 12) was 0.0 g/L. For the same substance, the “Average Butanol” value (day 13) was 3.63 g/L, the “Average Glucose” value (day 13) was 2.0 g/L and the “Average Butanol” value (day 14) was 2.73 g/L. The “Average Glucose” value (day 14) was 14.2 g/L, the “Average Butanol” value (day 15) was 2.82 g/L and the “Average Glucose” value (day 15) was 23.8 g/L. For the same substance, the “Average Butanol” value (day 16) was 4.71 g/L, the “Average Glucose” value (day 16) was 29.2 g/L and the “Average Butanol” value (day 17) was 3.32 g/L. For the same substance, the “Average Glucose” value (day 17) was 30.4 g/L, the “Average Butanol” value (day 18) was 2.68 g/L and the “Average Glucose” value (day 18) was 40.1 g/L. The “Average Butanol” value (day 19) was 3.41 g/L, the “Average Glucose” value (day 19) was 33.8 g/L and the “Average Butanol” value (day 20) was 2.69 g/L. For the same substance, the “Average Glucose” value (day 20) was 40.3 g/L.
